# Read-outs that look alike come from different tables or passages of the source.
# Legend:
# [1] = target: Tyk2 kinase domain (DH1) (Homo sapiens (Human), UniProt P29597); experiment: Tyk2 Radioactive Kinase Assay; format: biochemical; conditions: for inhibition at 10 µM: read-out: Tyk2 JH1% Inhibition @ 10 μM
# Outline: (§1)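 Each kinase domain is incubated with test compound at 10 μM. Activity is then measured radiometrically and expressed as percent inhibition relative to uninhibited enzyme.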
# [2] = target: JAK2 kinase domain (JH1) (Homo sapiens (Human), UniProt O60674); experiment: JAK2 Radioactive Kinase Assay; format: biochemical; conditions: for inhibition at 10 µM: read-out: JAK2 JH1% Inhibition @ 10 μM
# JAK2 kinase domain (JH1), sequence (O60674 849-1124): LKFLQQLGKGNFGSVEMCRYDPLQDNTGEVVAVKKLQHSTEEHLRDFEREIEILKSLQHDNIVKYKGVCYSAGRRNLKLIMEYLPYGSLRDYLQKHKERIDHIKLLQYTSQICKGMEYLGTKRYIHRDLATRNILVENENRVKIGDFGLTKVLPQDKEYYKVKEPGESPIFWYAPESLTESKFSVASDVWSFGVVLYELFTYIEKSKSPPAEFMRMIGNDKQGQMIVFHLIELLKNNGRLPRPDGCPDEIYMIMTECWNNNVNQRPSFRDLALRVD
# Outline: as §1
# [3] = target: human TYK2 (JH2domain-pseudokinase) (Homo sapiens (Human), UniProt P29597); experiment: TYK2 JH2 Domain Binding Assay (KINOMEscan)
# human TYK2 (JH2domain-pseudokinase), sequence (P29597 556-888): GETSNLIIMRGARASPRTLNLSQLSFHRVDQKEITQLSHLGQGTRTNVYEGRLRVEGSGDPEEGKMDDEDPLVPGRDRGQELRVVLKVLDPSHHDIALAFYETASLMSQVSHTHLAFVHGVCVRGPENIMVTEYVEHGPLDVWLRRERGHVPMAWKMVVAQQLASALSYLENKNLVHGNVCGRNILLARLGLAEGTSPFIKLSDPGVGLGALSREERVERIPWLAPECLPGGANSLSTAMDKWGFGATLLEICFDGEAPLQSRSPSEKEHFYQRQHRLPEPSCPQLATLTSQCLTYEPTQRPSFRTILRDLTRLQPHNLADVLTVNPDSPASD
# Outline: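 Competition binding of an NFkB-DBD fusion of human TYK2 JH2 (G556–D888), expressed in HEK293 and used as crude extract at <0.1 nM, against immobilized ligand beads; 1 h at room temperature in PBS/Tween/DTT/BSA buffer, 0.9% DMSO.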
# Tyk2 kinase domain (DH1), sequence (P29597 897-1176): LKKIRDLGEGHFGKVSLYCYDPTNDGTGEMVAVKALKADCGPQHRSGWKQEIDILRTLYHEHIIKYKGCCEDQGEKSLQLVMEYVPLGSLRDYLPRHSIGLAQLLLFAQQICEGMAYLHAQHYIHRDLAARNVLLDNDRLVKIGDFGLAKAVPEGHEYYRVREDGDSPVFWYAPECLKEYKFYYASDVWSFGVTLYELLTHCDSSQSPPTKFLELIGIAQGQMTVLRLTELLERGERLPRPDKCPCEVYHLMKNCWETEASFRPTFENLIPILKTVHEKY
SMILES,Kd [3] [nM],"inhibition at 10 µM ([1]; 10 μM compound, 10 μM ATP) [%]","inhibition at 10 µM ([2]; 10 μM compound, 10 μM ATP) [%]",also measured
"CNc1cc(-c2cn(CCN3CCOCC3)c3ncccc23)nc2c(C(=O)N[C@@H]3CC[C@H]3O)cnn12 [I-792, N-(2-hydroycyclobutyl)-7-(methylamino)-5-(1-(2-morpholinoethyl)-1H-pyrrolo[2,3-b]pyridine-3-yl)pyrazolo[1,5-a]pyrimidine-3-carboxamide]",< 0.2,,,"inhibition at 10 µM ([1]; compound at 10 μM, ATP 10 μM): < 50%; inhibition at 10 µM ([2]; compound at 10 μM, ATP 10 μM): < 50%"
CNc1cc(-c2cn(CCN3CCCCC3)c3ncccc23)nc2c(C(=O)N[C@@H]3CC[C@@H]3O)cnn12 [I-793],< 0.2,,,"inhibition at 10 µM ([1]; compound at 10 μM, ATP 10 μM): < 50%; inhibition at 10 µM ([2]; compound at 10 μM, ATP 10 μM): < 50%"
CNc1cc(-c2cn(CCN3CCCCC3)c3ncccc23)nc2c(C(=O)N[C@@H]3CC[C@H]3O)cnn12 [I-794],< 0.2,,,"inhibition at 10 µM ([1]; compound at 10 μM, ATP 10 μM): < 50%; inhibition at 10 µM ([2]; compound at 10 μM, ATP 10 μM): < 50%"
CNc1cc(Nc2cccn([C@H]3CCC[C@@H](OC)C3)c2=O)nc2c(C(=O)N[C@@H]3C[C@@H]3F)cnn12 [I-795],< 0.2,,,"inhibition at 10 µM ([1]; compound at 10 μM, ATP 10 μM): < 50%; inhibition at 10 µM ([2]; compound at 10 μM, ATP 10 μM): < 50%"
"CNc1cc(-c2cn(CCN3CCOCC3)c3ncccc23)nc2c(C(N)=O)cnn12 [I-796, 7-(methylamino)-5-(1-(2-morpholinoethyl)-1H-pyrrolo[2,3-b]pyridin-3-yl)pyrazolo[1,5-a]pyrimidine-3-carboxamide]",< 0.2,,,"inhibition at 10 µM ([1]; compound at 10 μM, ATP 10 μM): < 50%; inhibition at 10 µM ([2]; compound at 10 μM, ATP 10 μM): < 50%"
CNc1cc(-c2cn(CCN3CCCCC3)c3ncccc23)nc2c(C(N)=O)cnn12 [I-797],< 0.2,,,"inhibition at 10 µM ([1]; compound at 10 μM, ATP 10 μM): < 50%; inhibition at 10 µM ([2]; compound at 10 μM, ATP 10 μM): < 50%"
CNc1cc(Nc2cc(Cl)cn([C@@H]3CCCOC3)c2=O)nc2c(C(=O)N[C@H]3[C@@H]4COC[C@@H]43)cnn12 [I-799],0.2 to 1,,,"inhibition at 10 µM ([1]; compound at 10 μM, ATP 10 μM): < 50%; inhibition at 10 µM ([2]; compound at 10 μM, ATP 10 μM): < 50%"
CNc1cc(Nc2cc(Cl)cn([C@H]3CCCOC3)c2=O)nc2c(C(=O)N[C@H]3[C@@H]4COC[C@@H]43)cnn12 [I-800],0.2 to 1,,,"inhibition at 10 µM ([1]; compound at 10 μM, ATP 10 μM): < 50%; inhibition at 10 µM ([2]; compound at 10 μM, ATP 10 μM): < 50%"
CNc1cc(Nc2cccn([C@H]3CC[C@@H]3O)c2=O)nc2c(C(=O)NC3CC3)cnn12 [I-801],0.2 to 1,,,"inhibition at 10 µM ([1]; compound at 10 μM, ATP 10 μM): < 50%; inhibition at 10 µM ([2]; compound at 10 μM, ATP 10 μM): < 50%"
CNc1cc(Nc2cccn([C@H]3CCCOC3)c2=O)nc2c(C(=O)N[C@@H]3CC[C@@H]3O)cnn12 [I-804],0.2 to 1,,,"Tyk2 JH1% Inhibition @ 10 μM ([1]; compound at 10 μM, ATP 10 μM): A (percent inhibition at 10 μM lower than 50); JAK2 JH1% Inhibition @ 10 μM ([2]; compound at 10 μM, ATP 10 μM): A (percent inhibition at 10 μM lower than 50)"
CNc1cc(Nc2cccn(-c3ccccn3)c2=O)nc2c(C(=O)N[C@@H]3CC[C@@H]3O)cnn12 [I-806],0.2 to 1,,,"Tyk2 JH1% Inhibition @ 10 μM ([1]; compound at 10 μM, ATP 10 μM): A (percent inhibition at 10 μM lower than 50); JAK2 JH1% Inhibition @ 10 μM ([2]; compound at 10 μM, ATP 10 μM): A (percent inhibition at 10 μM lower than 50)"
"CNc1cc(-c2cn(CCN3CCOCC3)c3ncccc23)nc2c(C(=O)NCC3(CO)CC3)cnn12 [I-807, N-((1-(hydroxymethyl)cyclopropyl)methyl)-7-(methylamino)-5-(1-(2-morpholinoethyl)-1H-pyrrolo[2,3-b]pyridin-3-yl)pyrazolo[1,5-a]pyrimidine-3-carboxamide]",0.2 to 1,,,"inhibition at 10 µM ([1]; compound at 10 μM, ATP 10 μM): < 50%; inhibition at 10 µM ([2]; compound at 10 μM, ATP 10 μM): < 50%"
CNc1cc(Nc2cccn(-c3cnn(C)c3F)c2=O)nc2c(C(=O)NC3CC3)cnn12 [I-808],< 0.2,< 50,< 50,
CNc1cc(Nc2cccn(-c3cnco3)c2=O)nc2c(C(=O)N[C@H]3CC[C@H]3O)cnn12 [I-809],0.2 to 1,,,"Tyk2 JH1% Inhibition @ 10 μM ([1]; 10 μM compound, 10 μM ATP): A (percent inhibition at 10 μM lower than 50); JAK2 JH1% Inhibition @ 10 μM ([2]; 10 μM compound, 10 μM ATP): A (percent inhibition at 10 μM lower than 50)"
CNc1cc(Nc2cccn([C@H]3[C@@H]4COC[C@@H]43)c2=O)nc2c(C(=O)NC3CC3)cnn12 [I-810],< 0.2,< 50,< 50,
CNc1cc(Nc2cccn(-c3cccnc3C)c2=O)nc2c(C(=O)NC3CC3)cnn12 [I-812],1 to 10,< 50,< 50,
CNc1cc(Nc2cccn(-c3cccnc3C)c2=O)nc2c(C(=O)N[C@@H]3C[C@@H]3F)cnn12 [I-813],0.2 to 1,< 50,< 50,
"CNc1cc(-c2cn(CCN3CCOCC3)c3ncccc23)nc2c(C(=O)NCC(C)(C)CO)cnn12 [I-818, N-(3-hydroxy-2,2-dimethylpropyl)-7-(methylamino)-5-(1-(2-morpholinoethyl)-1H-pyrrolo[2,3-b]pyridin-3-yl)pyrazolo[1,5-a]pyrimidine-3-carboxamide]",0.2 to 1,< 50,< 50,
CNc1cc(Nc2cccn([C@@H]3CCC[C@@H](O)C3)c2=O)nc2c(C(=O)NC3CC3)cnn12 [I-822],< 0.2,< 50,< 50,

SMILES,Kd [3] [nM],"inhibition at 10 µM ([1]; 10 μM compound, 10 μM ATP) [%]","inhibition at 10 µM ([2]; 10 μM compound, 10 μM ATP) [%]",also measured
CNc1cc(Nc2cccn([C@H]3CCN(C)CC3(F)F)c2=O)nc2c(C(=O)NC3CC3)cnn12 [I-823],0.2 to 1,< 50,< 50,
CNc1cc(Nc2cccn([C@@H]3CCN(C)CC3(F)F)c2=O)nc2c(C(=O)NC3CC3)cnn12 [I-824],0.2 to 1,< 50,< 50,
CNc1cc(Nc2cccn([C@H]3CC[C@H](OC)CC3)c2=O)nc2c(C(=O)NC[C@@H](C)CO)cnn12 [I-830],< 0.2,< 50,< 50,
CNc1cc(Nc2cccn([C@H]3CC[C@H](OC)CC3)c2=O)nc2c(C(=O)N[C@@H]3COC[C@@H]3O)cnn12 [I-831],< 0.2,< 50,< 50,
CNc1cc(Nc2cccn([C@H]3CC[C@H](OC)CC3)c2=O)nc2c(C(=O)N[C@H]3COC[C@H]3O)cnn12 [I-832],1 to 10,< 50,< 50,
CNc1cc(Nc2cccc3ocnc23)nc2c(C(=O)N[C@@H]3COC[C@@H]3O)cnn12 [I-833],> 10,< 50,< 50,
CNc1cc(-c2cn(CCN3CCOCC3)c3ncccc23)nc2c(C(=O)N[C@H]3CC[C@@H]3O)cnn12 [I-836],0.2 to 1,< 50,< 50,
CNc1cc(-c2cn(CCN3CCCCC3)c3ncccc23)nc2c(C(=O)N[C@H]3CC[C@@H]3O)cnn12 [I-838],< 0.2,< 50,< 50,
"CNc1cc(-c2cn(C(C)C)c3ncccc23)nc2c(C(=O)N[C@H]3COC[C@H]3O)cnn12 [I-841, N-((3S,4S)-4-hydroxytetrahydrofuran-3-yl)-5-(1-isopropyl-1H-pyrrolo[2,3-b]pyridin-3-yl)-7-(methylamino)pyrazolo[1,5-a]pyrimidine-3-carboxamide]",1 to 10,< 50,< 50,
CNc1cc(Nc2cccn(C3CCN(CCF)CC3)c2=O)nc2c(C(=O)N[C@H]3CC[C@H]3O)cnn12 [I-844],< 0.2,< 50,< 50,
CNc1cc(Nc2cccn(C3CCN(CCF)CC3)c2=O)nc2c(C(=O)N[C@@H]3CC[C@H]3O)cnn12 [I-845],< 0.2,< 50,< 50,
CNc1cc(Nc2cccn(C3CCN(CCF)CC3)c2=O)nc2c(C(=O)NCC3(CO)CC3)cnn12 [I-846],< 0.2,< 50,< 50,
CNc1cc(Nc2cccn(C3CCCN(CCF)C3)c2=O)nc2c(C(=O)NC3CC3)cnn12 (stereo not drawn) [I-848],< 0.2,< 50,< 50,
CNc1cc(Nc2cccn(-c3cccnc3C)c2=O)nc2c(C(=O)NCC(C)(C)CO)cnn12 [I-850],1 to 10,< 50,< 50,
CNc1cc(Nc2cc(Cl)cn([C@@H]3CCCN(C)C3)c2=O)nc2c(C(=O)N[C@@H]3C[C@@H]3F)cnn12 [I-853],< 0.2,< 50,< 50,
"CNc1cc(-c2cn(CCN3CCOCC3)c3ncccc23)nc2c(C(=O)N[C@@H]3COC[C@@H]3O)cnn12 [I-855, N-((3R,4R)-4-hydroxytetrahydrofuran-3-yl)-7-(methylamino)-5-(1-(2-morpholinoethyl)-1H-pyrrolo[2,3-b]pyridin-3-yl)pyrazolo[1,5-a]pyrimidine-3-carboxamide]",1 to 10,< 50,< 50,
"CNc1cc(-c2cn(CCN3CCOCC3)c3ncccc23)nc2c(C(=O)N[C@H]3COC[C@H]3O)cnn12 [I-856, N-((3S,4S)-4-hydroxytetrahydrofuran-3-yl)-7-(methylamino)-5-(1-(2-morpholinoethyl)-1H-pyrrolo[2,3-b]pyridin-3-yl)pyrazolo[1,5-a]pyrimidine-3-carboxamide]",0.2 to 1,< 50,< 50,
"CNc1cc(Nc2cccc3ocnc23)nc2c(C(=O)N[C@H]3CC[C@@H]3O)cnn12 [I-858, 5-(benzo[d]oxazol-4-ylamino)-N-((1S,2S)-2-hydroxycyclobutyl)-7-(methylamino)pyrazolo[1,5-a]pyrimidine-3-carboxamide]",< 0.2,< 50,< 50,
CNc1cc(Nc2cccc(-c3cn(C)nc3F)n2)nc2c(C(=O)NC3CC3)cnn12 [I-859],< 0.2,< 50,< 50,
